Tests used:
[1] = target: T1, hERG current (hERG-transfected HEK293 cells) (Homo sapiens, UniProt Q12809); test: hERG whole cell patch clamp test; format: cell-based; details: for IC50: whole cell patch clamp, hERG-transfected HEK293 cells
T1 construct: host or cells: HEK293
Procedure: Using human ether-a-go-go related gene (hERG)-transfected HEK293 cells (Cytomyx Limited), an influence on hERG current was examined according to the whole cell patch clamp technique. The hERG-transfected HEK293 cells were passaged using a CO2 incubator (BNA-111, TABAI ESPEC CORP.) under the set conditions of 37° C., 5% CO2, saturated humidity. Culture containers used were Collagen Type I Coated 75 cm^2 flask (4123-010, AGC TECHNO GLASS CO., Ltd.) and Collagen Type I Coated 35 mm culture dish (4000-010, AGC TECHNO GLASS CO., Ltd.). The culture medium used was E-MEM (Eagle Minimum Essential Medium (Earle's Salts, Nikken biomedical laboratory) added with 10% FCS (Fetal calf serum, BioWest, L.L.C.) and 1% MEM Non-Essential Amino Acids Solution (NEAA, Invitrogen Corporation). Geneticin for the selection of hERG gene expressing cells was added thereto to a concentration of 400 μg/mL. As the cells for the measurement, 3×10^4 hERG-transfected HEK293 cells were plated on a 35 mm culture dish 4 to 7 days before measurement of the hERG current. The culture dish produced for the measurement contained the above-mentioned culture medium without geneticin (Invitrogen Corporation).
The highest evaluation concentration of each compound was determined from the highest concentration at which precipitation was not found in the standard extracellular fluid (NaCl: 140 mmol/L, KCl: 2.5 mmol/L, MgCl2: 2 mmol/L, CaCl2: 2 mmol/L, HEPES: 10 mmol/L, glucose: 10 mmol/L (adjusted to pH 7.4 with Tris-base)). As the application method, each solution to be applied was ejected from a Y-tube having a tip diameter of about 0.25 mm, which was adjacent (about 2 mm) to the cells, and applied to the cells. The ejection rate was about 0.4 mL/min.
The experiment was performed at room temperature under a phase contrast microscope. The 35 mm culture dish plated with the cells was set on a measurement apparatus, and the standard extracellular fluid was continuously applied to the cells from the Y-tube. A glass electrode for the measurement was filled with an intracellular fluid (Potassium Gluconate: 130 mmol/L, KCl: 20 mmol/L, MgCl2: 1 mmol/L, ATP-Mg: 5 mmol/L, EGTA: 3.5 mmol/L, HEPES: 10 mmol/L (adjusted to pH 7.2 with Tris-base)). A conventional whole cell patch clamp method was applied to the cells, and the maintenance electric potential was set to −80 mV. Under a fixed electric potential, the whole cell current was amplified by an amplifier for patch clamp (AXOPATCH-200B, Axon Instruments, Inc.), and the data was loaded into a computer (IMC-P642400, Intermedical Co., Ltd.) using a data acquisition analysis software (pCLAMP 9.2, Axon Instruments, Inc.).
The measurement of the hERG current was performed in the following two steps. In both cases, the hERG current was initiated by giving a command potential (maintenance electric potential −80 mV, prepulse+20 mV, 1.5 sec, test-pulse −50 mV, 1.5 sec).
Step (1): The above-mentioned command potential was given at 0.1 Hz for 2 min.
Step (2): The above-mentioned command potential was subjected to P/3 subtraction of pCLAMP 9.2 to remove leak current. This was repeated three times and an average thereof was taken as hERG current.
Subsequent to step (1), Step (2) was performed (about 3 min), and the maximum tail current obtained by applying a test-pulse to the hERG current obtained by the method of step (2) was taken as hERG current value. Hereafter, the operations of (1) and (2) were alternately repeated until completion of the experiment and the hERG current value was measured.
Stable hERG current value was recorded three times (about 10 min), and the standard extracellular fluid was instantaneously exchanged with each application fluid. The hERG current value was measured three times (about 10 min) in the same manner during perfusion of the application fluid, and the current value obtained by the 3rd measurement was taken as hERG current value after perfusion of the application fluid. […]

[2] = Metabolic stability test in liver microsome (human); format: in vitro ADME; details: 5 μM test compound
Procedure: Human liver microsome (manufactured by Xenotech, H0620, final concentration (after dilution), 0.2 mg protein/mL) was suspended in 100 mM potassium phosphate buffer (pH 7.4, containing β-nicotinamide adenine dinucleotide phosphate: 1.3 mM, D-glucose-6-phosphate: 3.3 mM, magnesium chloride: 3.3 mM, glucose-6-phosphate dehydrogenase: 0.45 U/mL), and further mixed with a test compound dissolved in MeCN/DMSO (95/5) (final concentration 5 μM). The mixture was incubated at 37° C. for 10 min and 60 min, acetonitrile containing formic acid (final concentration 0.1%) was added, and the mixture was centrifuged. The test compound (unmodified) in the supernatant was measured by high performance liquid chromatography/mass spectrometry (LC/MS) (manufactured by Waters, LC: Acquity UPLC, MS:SQ Detector or TQ Detector). The residual ratio (%) was calculated from the obtained measurement value.

[3] = Metabolic stability test in liver microsome (rat); format: in vitro ADME

T1 sequence (Q12809 whole entry): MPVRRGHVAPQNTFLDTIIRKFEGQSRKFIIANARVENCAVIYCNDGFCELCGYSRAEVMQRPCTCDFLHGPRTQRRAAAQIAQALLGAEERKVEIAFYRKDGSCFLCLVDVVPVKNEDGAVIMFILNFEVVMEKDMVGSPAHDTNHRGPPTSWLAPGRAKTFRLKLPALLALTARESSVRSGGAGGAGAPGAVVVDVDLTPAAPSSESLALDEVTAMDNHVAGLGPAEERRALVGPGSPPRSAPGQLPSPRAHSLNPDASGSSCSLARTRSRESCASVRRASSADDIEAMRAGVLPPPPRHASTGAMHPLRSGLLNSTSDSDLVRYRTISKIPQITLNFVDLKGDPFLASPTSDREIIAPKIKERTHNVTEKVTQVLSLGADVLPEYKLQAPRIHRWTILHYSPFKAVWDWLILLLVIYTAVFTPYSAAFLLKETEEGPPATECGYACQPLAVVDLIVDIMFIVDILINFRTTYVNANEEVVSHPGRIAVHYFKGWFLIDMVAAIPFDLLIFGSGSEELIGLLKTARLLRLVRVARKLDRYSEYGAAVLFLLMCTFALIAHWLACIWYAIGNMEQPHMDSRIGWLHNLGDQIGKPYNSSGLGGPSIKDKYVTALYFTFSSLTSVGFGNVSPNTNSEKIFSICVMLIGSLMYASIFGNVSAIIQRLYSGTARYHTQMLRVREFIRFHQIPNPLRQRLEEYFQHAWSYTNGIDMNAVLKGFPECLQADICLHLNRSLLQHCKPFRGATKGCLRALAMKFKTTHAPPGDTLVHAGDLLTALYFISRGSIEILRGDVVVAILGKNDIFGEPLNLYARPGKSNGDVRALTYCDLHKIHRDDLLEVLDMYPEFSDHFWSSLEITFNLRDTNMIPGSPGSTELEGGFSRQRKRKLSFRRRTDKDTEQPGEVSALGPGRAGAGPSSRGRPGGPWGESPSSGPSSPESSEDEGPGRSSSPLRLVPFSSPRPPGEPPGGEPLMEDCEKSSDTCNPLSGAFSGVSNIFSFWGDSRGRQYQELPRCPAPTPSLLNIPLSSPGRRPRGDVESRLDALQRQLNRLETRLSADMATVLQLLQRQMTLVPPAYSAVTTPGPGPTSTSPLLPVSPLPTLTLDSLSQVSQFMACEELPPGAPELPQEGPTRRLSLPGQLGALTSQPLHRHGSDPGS

For `NC(=O)Cn1cc(-c2cc(OCCC34CC5CC(CC(O)(C5)C3)C4)cc3c2-c2ccccc2[C@]3(O)C(F)(F)F)cn1` [compound (A), 2-(4-{(9R)-9-Hydroxy-2-[2-(3-hydroxyadamantan-1-yl)ethoxy]-9-(trifluoromethyl)-9H-fluoren-4-yl}-1H-pyrazol-1-yl)acetamide, reference compound], the “hERG inhibition rate (%)” value ([1]; concentration 10 μmol/L) was 11.8%, the “stability in liver microsome (residual ratio %)” value (“stability … (residual ratio %)” below) ([2]; 10 min) was 34.8% and the “stability … (residual ratio %)” value ([2]; 60 min) was 0.0%. For the same compound, the “stability … (residual ratio %)” value ([3]; 10 min) was 24.8% and the “stability … (residual ratio %)” value ([3]; 60 min) was 0.0%.

With `C[C@H](O)COc1cc(-c2cnn(CC(C)(C)O)c2)c2c(c1)[C@@](O)(C(F)(F)F)c1ccccc1-2` [compound (1), (9R)-4-[1-(2-hydroxy-2-methylpropyl)-1H-pyrazol-4-yl]-2-((2S)-2-hydroxypropoxy)-9-(trifluoromethyl)-9H-fluoren-9-ol] the “hERG inhibition rate (%)” value ([1]; concentration 10 μmol/L) was 16.2%, the “hERG inhibition rate (%)” value ([1]; concentration 100 μmol/L) was 62.3% and the IC50 [1] was 54.4 µM. The “stability … (residual ratio %)” value ([2]; 10 min) was 102.1%, the “stability … (residual ratio %)” value ([2]; 60 min) was 87.8% and the “stability … (residual ratio %)” value ([3]; 10 min) was 102.0%. For the same compound, the “stability … (residual ratio %)” value ([3]; 60 min) was 95.4%.

With `CC(C)(O)COc1cc(-c2cnn(CC(C)(C)O)c2)c2c(c1)[C@@](O)(C(F)(F)F)c1ccccc1-2` [compound (2), (9R)-2-(2-hydroxy-2-methylpropoxy)-4-[1-(2-hydroxy-2-methylpropyl)-1H-pyrazol-4-yl]-9-(trifluoromethyl)-9H-fluoren-9-ol] the “hERG inhibition rate (%)” value ([1]; concentration 10 μmol/L) was 13.2%, the “hERG inhibition rate (%)” value ([1]; concentration 100 μmol/L) was 67.6% and the IC50 [1] was 47.6 µM. The “stability … (residual ratio %)” value ([2]; 10 min) was 94.9%, the “stability … (residual ratio %)” value ([2]; 60 min) was 87.9% and the “stability … (residual ratio %)” value ([3]; 10 min) was 95.1%. The “stability … (residual ratio %)” value ([3]; 60 min) was 93.6%.

With `CC(C)(O)CCCOc1cc(-c2cnn(CC(C)(C)O)c2)c2c(c1)[C@@](O)(C(F)(F)F)c1ccccc1-2` [compound (4), (9R)-2-(4-hydroxy-4-methylpentyloxy)-4-[1-(2-hydroxy-2-methylpropyl)-1H-pyrazol-4-yl]-9-(trifluoromethyl)-9H-fluoren-9-ol] the “hERG inhibition rate (%)” value ([1]; concentration 10 μmol/L) was 18.6%, the “hERG inhibition rate (%)” value ([1]; concentration 30 μmol/L) was 44.0% and the IC50 [1] was over 30 µM. For the same compound, the “stability … (residual ratio %)” value ([2]; 10 min) was 98.8%, the “stability … (residual ratio %)” value ([2]; 60 min) was 78.9% and the “stability … (residual ratio %)” value ([3]; 10 min) was 98.9%. For the same compound, the “stability … (residual ratio %)” value ([3]; 60 min) was 93.5%.

With `Cn1cc(-c2cc(OCC(C)(C)O)cc3c2-c2ccccc2[C@]3(O)C(F)(F)F)cn1` [compound (B), (9R)-2-(2-Hydroxy-2-methylpropoxy)-4-(1-methyl-1H-pyrazol-4-yl)-9-(trifluoromethyl)-9H-fluoren-9-ol, reference compound] the “hERG inhibition rate (%)” value ([1]; concentration 1 μmol/L) was 17.4%, the “hERG inhibition rate (%)” value ([1]; concentration 10 μmol/L) was 72.9% and the “stability … (residual ratio %)” value ([2]; 10 min) was 98.0%. The “stability … (residual ratio %)” value ([2]; 60 min) was 88.2%, the “stability … (residual ratio %)” value ([3]; 10 min) was 101.1% and the “stability … (residual ratio %)” value ([3]; 60 min) was 92.1%.

Source: patent US20150025120A1, “PYRAZOLE-ALCOHOL COMPOUNDS AND PHARMACEUTICAL USE THEREOF” (JAPAN TOBACCO INC., priority 2013, published 2015)
